# Assay results reported in patent US20210403419A1, “SERINE DERIVATIVE COMPOUND FOR THE PREVENTION OR TREATMENT OF CENTRAL NERVOUS SYSTEM DISEASES” (Astrogen Co., Ltd., priority 2019, published 2021).
# Tests used:
# [1] = system: hippocampal neuronal cell HT-22; test: MTT cell viability / neuronal cell proliferation assay; settings: for effect on cell proliferation in complete medium: L-serine versus AST-009, 25 to 10,000 μg
# Experimental: Murine hippocampal neuronal cell line HT-22 was cultured in Dulbecco's Modified Eagle's Medium (DMEM) supplemented with 10% fetal bovine serum (FBS) and 100 μg/ml gentamycin at 37° C. under a 5% CO2 atmosphere. In this Example, cells at passage 15 or below were used.
# Cell proliferation activity was examined by an MTT assay for measuring cell viability. First, hippocampal neuronal cell HT-22 (1×10^4 cells) was incubated with each of serially diluted sample solutions in 96-well plates for 16 hours, and then mixed with 50 μl of MTT (3-(4,5-dimethyl thiazolyl)2,5-diphenyl tetrazolium bromide) solution (1.1 mg/ml), followed by additional incubation for 4 hours. The formed formazan crystal was dissolved in 150 μl of […], and the optical density (OD) at 540 nm was measured using a plate reader.
# [2] = system: mouse hippocampal neuronal HT-22 cells treated with DMNQ; test: Neuronal cell protection against DMNQ-induced oxidative stress (DiOC6 staining); assay type: cell-based; settings: DMNQ 10 μM, DMNQ alone 77.8%
# Experimental: First, 1×10^6 cells were washed three times with 2% FBS-containing PBS solution, and the washed cells were suspended in 70% ethanol and fixed at 4° C. for 1 hour. The fixed cells were washed twice with the same solution, suspended in 250 μl of RNase A solution (50 μg/ml concentration), and incubated at 37° C. for 30 minutes to remove RNA from the cells. Then, DNA in the cells was stained at room temperature for 20 minutes by adding 250 μl of 1.12% sodium citrate buffer (pH 8.45) containing 50 μg/ml of propidium iodide. The cells were analyzed with a flow cytometer (FACS Calibur), and the distribution of the cell cycle was examined based on the content of stained DNA in each cell.
# The cell protective activity of the selected drug (AST-009) against DMNQ-induced oxidative stress was compared by DiOC6 staining. […] Thus, it could be seen that the cell protective activity of AST-009 was much stronger than that of L-serine.
# [3] = Blood-brain barrier (BBB) permeability in ICR mice; assay type: in vivo; settings: 500 mg/kg
# Experimental: Each of L-serine and AST-099 was administered to 7-week-old ICR mice (n=3) at a dose of 500 mg/kg, and then the brain tissue and the blood were collected. The concentrations of L-serine distributed in the blood and the brain were quantified using LC/MS, and the BBB permeability was compared between the drugs by calculating the ratio of the concentration of L-serine in the brain to that in the blood.
# [4] = L-serine quantified by LC/MS, ICR mice, n=3
SMILES,"effect on cell proliferation at high concentration ([1]; L-serine/glycerin-deficient medium, concentration of 1 mg/ml or more)",effect on cell proliferation in complete medium [1],cell damage rate (membrane potential loss) ([2]; compound 0.5 mg/ml) [%],cell damage rate (membrane potential loss) ([2]; compound 1 mg/ml) [%],cell damage rate (membrane potential loss) ([2]; compound 5 mg/ml) [%],"Concentration, Brain tissue [3, 4] [ng/g]","Concentration, Plasma [3, 4] [ng/mL]","Kp ([3]; mouse, brain/plasma, ratio of L-serine concentration in brain to that in blood, ICR mice, n=3, read-out: Cbrain/Cplasma)","Cbrain/Cplasma ([3]; ratio of L-serine concentration in brain to that in blood, ICR mice, n=3)","HT-22 cell proliferation (cell viability, MTT) ([1]; L-serine/glycerin-deficient medium, treatment concentration of 10,000 μg/ml (=10 mg/ml))","Concentration, Brain tissue ([3]; mouse, in vivo) [ng/g]","Concentration, Plasma ([3]; mouse, in vivo) [ng/mL]"
N[C@@H](CO)C(=O)O [L-serine],slightly inhibited cell proliferation,no significant difference,59.9,58.7,54.5,7314 ± 2071,2121 ± 1192,4.16 ± 2.03,4.16 ± 2.03,,,
"NCCCC[C@H](NC(=O)[C@H](CO)NC(=O)[C@H](CO)NC(=O)[C@H](CO)NC(=O)O)C(=O)O [AST-009, H-Lys-Ser-Ser-Ser-OH]",,no significant difference,64.3,45.5,20.0,,,,,up to 139%,7944 ± 427,1205 ± 120
